Test: Human HepG2 cell viability assay in 384 well format
Format: toxicity, cell-based
Design: dose 125 nL, time 70.5 hour; concentration not given beside the values
Settings: HepG2 cells, read-out: Inhibition

| Compound | cytotoxicity at 70.5 h [%] |
| --- | --- |
| CC(=O)OC1CN(c2nc3c(C(F)(F)F)cccc3s2)C1 | -11.8 |
| COc1ccc(C(C(=O)O)N(C)CCN2CCCC2)cc1F (configuration not stated) | -9.88 |
| CC[C@H](C)[C@@H](CO)NC(C)Cc1ccccc1F (some centres not stated) | -2.57 |
| COCCCNC(=O)CN(C)C(C)c1nc(C)no1 (configuration not stated) | -3.18 |
| CCc1nc2n(n1)CC(NCc1ccccc1OCC(=O)NC)CC2 (configuration not stated) | -2.9 |
| Cc1cc(-c2cnn(CCNC(=O)c3cccnc3)c2C2CC2)on1 | -16.3 |
| CC(C)S(=O)(=O)NCC1CCCN(C(=O)c2cccnc2)C1 (configuration not stated) | -7.06 |
| CN1CCN(C2CCN(CC(O)c3ccccc3F)CC2)C1=O (configuration not stated) | 16.4 |
| Cc1cnc(N2CCn3c(CN4CCOCC4)nnc3C2)nc1 | 21.1 |
| Cc1nc2n(n1)CC(Nc1ccnc(-c3ccccc3)n1)CC2 (configuration not stated) | -6.55 |
| CCCc1nc(N2CC[C@@H](c3ccc4ccccc4c3)[C@H](O)C2)no1 | -0.24 |
| Cc1nnc(NC(=O)NCc2ccc(OC3CCCC3)nc2)s1 | 1.95 |
| CC(=O)N1CCCc2sc(C(=O)NC3CC3)nc21 | -6.9 |
| CN(Cc1ccncc1)C1CC2(CCN(c3ncc(F)cn3)CC2)C1 | 2.52 |
| CC(=O)NCCNC(=O)c1cccc(Cn2nc(C)cc2C)c1 | -1.57 |
| NC(=O)CSc1ccccc1NC(=O)CC1C=CCC1 (configuration not stated) | 27.1 |
| Cc1cc(C)cc(N(C)S(=O)(=O)c2cc3c(c(C(=O)O)c2)OCCO3)c1 | -12.8 |
| c1ccc(C2(CNCc3cnc(N4CCOCC4)nc3)CC2)cc1 | -8.71 |
| O=C(NCCc1nncn1C1CC1)C1(c2ccccc2)CCC1 | -5.9 |
| CC1CCCN(S(=O)(=O)N2CCOC3(CCCC3)C2)C1 (configuration not stated) | 10.1 |
| CCn1ccnc1CN1CCN(CCC(=O)NC2CCCCC2)CC1 | -6.92 |
| Cc1cc(NCC2(O)CCOCC2)c2ccccc2n1 | -4.68 |
| COc1cc2c(cc1CNC(Cc1cccs1)c1nccs1)OCO2 (configuration not stated) | 18.9 |
| CN(C)CCN1C(=O)CCC12CCN(Cc1cccs1)CC2 | -11.7 |

| Compound | cytotoxicity at 70.5 h [%] |
| --- | --- |
| CCC(=O)N1CCCN(C(=O)C2SCCc3sccc32)CC1 (configuration not stated) | 3.13 |
| O=C(Cc1n[nH]c2ccccc12)N1CCCCC1Cn1cccn1 (configuration not stated) | 2.97 |
| O=S(=O)(NCC1(O)CCOc2ccccc21)c1ccc(Cl)s1 (configuration not stated) | -6.65 |
| O=C(NCCOc1ccccc1)C1NCCc2[nH]cnc21 (configuration not stated) | -7.83 |
| Cc1cccc(-n2nc(CC(C)C)nc2CCC(=O)N(C)C)c1 | 0.846 |
| Cc1nc(-c2ccccc2)cc(C2CCNCC2)n1 | 7.58 |
| COc1ccc(N(C(=O)Cc2ccc(C)nc2)C(C)C)cc1F | -5.23 |
| c1nc2c(c(C3CC3)n1)CCN(Cc1ccoc1)CC2 | 18.1 |
| CC(=O)N1CCN(Cc2coc(-c3cccc(F)c3)n2)CC1 | -19.9 |
| O=C(c1ccncc1)N1CCc2[nH]nc(Nc3ccccc3)c2C1 | 21.7 |
| COc1cccc(OC)c1OCCn1c(C)c(C)oc1=O | 0.271 |
| CNC(=O)[C@@H](C)NC(=O)c1cc(-c2ccc(F)cc2)c(C)s1 | -3.7 |
| COCc1cn(CC2CCN(Cc3cc(C)[nH]n3)CC2)nn1 | 20 |
| CCCNc1ncc(CN2CCN(C)C(=O)C2C)cn1 (configuration not stated) | 16 |
| CCc1nnc(C(C)N2CCCN(C(=O)OCC(C)C)CC2)o1 (configuration not stated) | 7.35 |
| CC(=O)c1cccc(NC(=O)Cn2cnc(-c3cccs3)cc2=O)c1 | -1.2 |
| Cc1ncccc1C(=O)Nc1cccc2c1C(=O)NC2 | -2.21 |
| CN(C)C(=O)CCc1cncc(C2CCCN2Cc2ccccn2)n1 (configuration not stated) | -6.05 |
| COc1ccc(C2CCCN2c2ccnc(C)c2Cl)c(OC)c1 (configuration not stated) | 33.7 |
| COc1ccc(NC(=O)NCC(O)c2ccccc2F)c(OC)c1 (configuration not stated) | 19.2 |
| CC[C@@H](c1ccccc1)n1c(C2CC2)n[nH]c1=O | -13 |
| F[C@@H]1CN(CC2CC2)C[C@@H]1OCc1nc2ccc(C(F)(F)F)cc2[nH]1 | 0.533 |
| COc1ccccc1CCNC(=O)NCC(=O)Nc1cccnc1 | -0.968 |
| O=c1n(Cc2ccc(F)cc2)nc2ncccn12 | 24.8 |

| Compound | cytotoxicity at 70.5 h [%] |
| --- | --- |
| Cc1ncsc1CCN(C)Cc1cc2n(n1)CCN(Cc1ccco1)C2 | -16.9 |
| COC1CCN(C(=O)c2ccc3ncsc3c2)CC1 | -2.33 |
| CCCNC(=O)Nc1ncc(-c2cccnc2)s1 | -9.71 |
| COc1c(CNCCC(=O)NC2CCCC2)c(C(C)C)nn1C | 0.44 |
| CCc1n[nH]c(C2CN(C(=O)c3ccnc(C)n3)CCO2)n1 (configuration not stated) | 13.5 |
| CCc1ccccc1OC1CN(C(=O)CN(C)Cc2cccnc2)C1 | 14 |
| CS(=O)(=O)NCC1CCCCN1C(=O)c1csc(-c2ccsc2)n1 (configuration not stated) | 0.102 |
| Cc1cncc(C2CCN(Cc3cccn3C)CC2)n1 | 11.8 |
| CC[C@H](C)[C@H](NC(=O)c1ccccc1-n1cnnn1)C(=O)OC | 33.9 |
| CC(NCc1ccc(C(C)(C)C)cc1)c1ccc(S(C)(=O)=O)cc1 (configuration not stated) | -8.09 |
| CCN(C(=O)Nc1cccnc1OC)C1CC1 | -9.27 |
| CCn1cc(-c2cncn2CCc2ccc3c(c2)OCCO3)cn1 | 19.5 |
| CC(NCc1cc(O)c2cccc(F)c2n1)c1ccccc1O (configuration not stated) | -10.4 |
| COCC(=O)NCCn1ccc2c(OC)cccc21 | -6.28 |
| O=C(NCC(O)c1ccc(F)cc1)C1CCN(C2CCCCC2)CC1 (configuration not stated) | -7.05 |
| c1ccc2sc(CN3CCCC3c3noc(C4CC4)n3)nc2c1 (configuration not stated) | 4.52 |
| CC(C)CN1CC(O)CN(C(=O)c2cccc(C(F)(F)F)c2)CC1=O (configuration not stated) | 13.3 |
| COC1CCCN(C(=O)c2sc(CC(C)C)nc2C)C1 (configuration not stated) | -6.5 |
| Cc1ccc(Cc2cnc(C3CCNCC3)cn2)cc1 | -12.9 |
| CC(=O)Nc1ccc(C(=O)N(C)Cc2ccc(F)cc2F)s1 | -61.6 |
| CCOCC(O)CN1CCN(C(=O)c2cccc3[nH]ncc23)CC1 (configuration not stated) | -4.87 |
| CC(CO)NC(=O)Nc1ccc(Cl)cc1OCC(F)(F)F (configuration not stated) | -4.37 |
| CC(C)N1CCOCC2(CCCN(C(=O)c3cn(C)cn3)C2)C1 (configuration not stated) | 0.0869 |
| CCS(=O)(=O)CC(=O)N1CCCC1c1noc(C2CC2)n1 (configuration not stated) | -8.04 |

| Compound | cytotoxicity at 70.5 h [%] |
| --- | --- |
| O=C(O)C1(Cc2cc(-c3cccc(F)c3)no2)CCOCC1 | -24 |
| O=C(Nc1ccccc1OCCc1ccccn1)N1CCOCC(O)C1 (configuration not stated) | -8.87 |
| Cc1cc(CN(C)C(=O)CNS(=O)(=O)c2cccs2)no1 | -6.5 |
| O=C(C1=CCCC1)N1C[C@@H]2COC[C@]2(COCc2ccncc2)C1 | -3.75 |
| COCC(=O)N1CCCCC1c1ccncn1 (configuration not stated) | 10.7 |
| Cn1cc(CN2CCC3(CCCCN3S(C)(=O)=O)CC2)cn1 | -11.7 |
| O=C1O[C@@H]2CN(c3ccc(Cl)cn3)C[C@@H]2N1CCc1ccc(F)cc1 | -8.87 |
| CC(C)n1[nH]c(=O)c2c1NC(=O)CC2c1ccc(C#N)cc1 (configuration not stated) | 18.7 |
| COc1cccc(S(=O)(=O)NC(=O)CCC2CCCO2)c1 (configuration not stated) | 1.07 |
| Cc1csc(CNC(=O)NCc2ccc3c(c2)OCCO3)n1 | -14.3 |
| COc1ccc2nnc(C(=O)NC3CCCC3)nc2c1 | -4.15 |
| Cc1nn(C)c(N2CCOCC2)c1CNCc1ccc2c(c1)OCO2 | -5.61 |
| COc1nn(C)cc1C(=O)N1CCC(C)CC1 | 26.1 |
| COCCN1C(=O)[C@]2(CC[C@@H]3CN(C(=O)NC4CCCC4)C[C@@H]32)N=C1C | -14.1 |
| Cc1cc(CN2CCN(C(=O)C3CCC3)[C@@H]3CS(=O)(=O)C[C@@H]32)ccc1F | 1.76 |
| CN(CCOc1ccc(C#N)cc1)CC1CC1 | 3.53 |
| O=C(CNC1CCc2ncnn2C1)NCCc1cccs1 (configuration not stated) | 2.68 |
| CCn1nnc2c1C(COC)CN(Cc1ccco1)C2 (configuration not stated) | 39.7 |
| CCCNC(=O)c1cnc2n1CCCC2 | -9.22 |
| CCNC(=O)CCC(=O)NC1(c2cccc(Br)c2)CC1 | -2.97 |
| CC(C)(C)NC(=O)c1cnc(C(C)(C)C)s1 | 3.79 |
| O=C(NCCc1cccs1)NCC(O)c1cccc(F)c1 (configuration not stated) | -7.4 |
| OCCN1CCN(CCOCC(F)(F)F)CC1 | 10.9 |
| Nc1cc(C(=O)NCC2CCN(Cc3cccc(O)c3)C2)ccn1 (configuration not stated) | 18.3 |

| Compound | cytotoxicity at 70.5 h [%] |
| --- | --- |
| COc1ccc(CCN2CCN(C(=O)c3scnc3C)CC2)cc1 | -5.8 |
| CN(C)C(=O)CC1CC2(CCN(C(=O)N(C)C)CC2)Oc2ccccc21 (configuration not stated) | -11.4 |
| CSc1c[nH]nc1NS(=O)(=O)c1cc(F)ccc1C | -3.64 |
| CCc1ncc2c(n1)CN(CC(=O)NC1CCCCNC1=O)CC2 (configuration not stated) | 1.9 |
| Cn1cc(-c2csc(N3CCOCC3)n2)cn1 | -3.47 |
| COCC1CN(Cc2cc(C)on2)Cc2cn(CC3CC3)nc21 (configuration not stated) | -1.87 |
| CCn1ncc2c1C(COCC1CC1)N(Cc1cnn(C)c1)CC2 (configuration not stated) | -3.67 |
| Cn1ccnc1-c1cccc(NC(=O)NCCN2CCOCC2)c1 | -3.53 |
| CCOc1ccc(C(C)Nc2ncnc3c2CCNC3)cc1OCC (configuration not stated) | -12 |
| CC(C)n1ccnc1CN1CCCC1c1cccc(-n2ccnc2)n1 (configuration not stated) | -2.76 |
| COc1ccc(C(=O)N2C[C@@H](CN3CCOCC3)[C@@H](CO)C2)c(C)c1 | -7.76 |
| CCn1cc2c(n1)C(COC)CN(C(=O)CCOc1ccccc1)C2 (configuration not stated) | -12.3 |
| CC(C)n1cnnc1Cn1ccc2ncccc2c1=O | 1 |
| C[C@@H]1CN(Cc2nc(C(N)=O)no2)CC[C@@]1(O)C1CC1 | -14.8 |
| O=C(NCCn1ccnc1-c1cc2n(n1)CCCNC2)c1ccncc1 | -2.02 |
| O=C1NCC(C(=O)Nc2ncc(Cc3ccc(F)cc3)s2)N1 (configuration not stated) | -3.14 |
| Cc1nc(CN2C(=O)COC3(CCN(C)CC3)C2C)cs1 (configuration not stated) | 4.23 |
| COc1ccc2c(c1)C(=O)NC1(CC2)CCN(Cc2ccccn2)C1 (configuration not stated) | -1 |
| CCc1cn[nH]c1C1CCCN(C(=O)c2cc(C(C)C)on2)C1 (configuration not stated) | -2.01 |
| CCNC(=O)C1CCCN(c2ccc3ccc(F)cc3n2)C1 (configuration not stated) | 0.815 |
| COCCN1C[C@H]2[C@@H](C1)N(C(=O)c1cccs1)CC[C@H]2OC | -21.9 |

Reference: ChEMBL document CHEMBL3507680, “University of Dundee, Gates Library screen for HepG2 cell viability”
